From US4100346A, “Certain 7(o-amino-methyl- or methylaminomethylphenyl- or cyclohexadienyl- or thienylacetamide)-3[1-carboxymethyl-(or ethyl- or propyl-)-tetrazol-5-ylthiomethyl]-3-cephem-4-carboxylic acids” (Bristol-Myers Company, priority 1976, dated 1978)
Values after ≈ are worked out from the molar mass of the structure shown. Like-named read-outs stand apart in the source and are kept apart here.

Key:
Providencia stuartii [1] = assay: Growth inhibitory activity, antibiotic dilution technique
Haemophilus influenzae = assay: as above; details: including 9 ampicillin-resistant strains
Pseudomonas aeruginosa = assay: as above; details: read-out: Minimum inhibitory concentration
in vitro = in vitro ADME, human; details: human, serum; read-out: protein bound (converted)
Streptococcus pneumoniae = assay: Intramuscular treatment of systemically infected mice; format: in vivo; details: im, 3.5 h, read-out: PD50 /treatment
Text: (§1) Treatment of Systemically Infected Mice. The procedures were identical with those published previously [Leitner et al., BL-S640, a Cephalosporin With a Broad Spectrum of Antibacterial Activity: Bioavailability and Therapeutic Properties in Rodents, Antimicrob. Agents Chemother. 7:306-310, (1975)], except that:
(§2) (a) the hog gastric mucin used in infections with Staphylococcus aureus No. 2 was purchased from American Laboratories, Inc., Omaha, Neb. (lot No. 154163) and b) that the medium used to suspend all other organisms contained 3% (rather than 4%) hog gastric mucin (type 1701W, Wilson Laboratories, Inc., Park Forest South, Ill.).
(§3) *Animals infected with penicillinase-producing staphyloccal strains (No.
(§4) and 3) were treated 0 and 2 hours after infection; the others were treate
(§5) 1 and 3.5 hours after infection.

Staphylococcus aureus = assay: as above; format: in vivo; details: im, read-out: PD50 /treatment
Text: as §1, §2, §3, §4, §5

Streptococcus pyogenes = assay: as above; format: in vivo; details: im, 3.5 h, read-out: PD50 /treatment
Text: as §1, §2, §3, §4, §5

Edwardsiella tarda = assay: Growth inhibitory activity, antibiotic dilution technique; details: read-out: Minimum inhibitory concentration
Citrobacter sp. = assay: Intramuscular treatment of systemically infected mice; format: in vivo; details: im, Citrobacter sp. strain 1, challenge 5×10^6 -2×10^7, treated 1 and 3.5 hours after infection, read-out: PD50 /treatment
Text: as §1, §2
(§6) *Animals were treated twice; 1 and 3.5 hours after infection.

Proteus vulgaris = assay: as above; format: in vivo; details: im, 3.5 h, read-out: PD50 /treatment
Text: as §1, §2, §6

Proteus morganii = assay: as above; format: in vivo; details: Morganella morganii, im, 3.5 h, read-out: PD50 /treatment
Text: as §1, §2, §6

Providencia stuartii [2] = assay: as above; format: in vivo; details: im, 3.5 h, read-out: PD50 /treatment
Text: as §1, §2, §6

Proteus rettgeri = assay: as above; format: in vivo; details: Providencia rettgeri, im, Proteus rettgeri strain 4, challenge 2×10^6 -3×10^6, treated 1 and 3.5 hours after infection, read-out: PD50 /treatment
Text: as §1, §2, §6

Proteus mirabilis [3] = assay: as above; format: in vivo; details: im, 3.5 h, read-out: PD50 /treatment
Text: as §1, §2, §6

Klebsiella pneumoniae = assay: as above; format: in vivo; details: im, 3.5 h, read-out: PD50 /treatment
Text: as §1, §2, §6

Escherichia coli = assay: as above; format: in vivo; details: im, 3.5 h, read-out: PD50 /treatment
Text: as §1, §2, §6

[4] = target: staphylococcal β-lactamase, Staphylococcus aureus A9606 (Staphylococcus aureus, UniProt P00807); assay: Hydrolysis by β-lactamase in cell-free extracts; format: biochemical; details: cell-free extract
Protocol: Miscellaneous. Methods for determining bactericidal activity and susceptibility to cell-free β-lactamase were those previously used; Leitner et al., BL-S640, A Cephalosporin With a Broad Spectrum of Antibacterial Activity: Properties in vitro, Antimicrob. Agents Chemother. 7:298-305 (1975).
Susceptibility to β-lactamase. Susceptibility to enzymic hydrolysis was assessed by determining relative rates of hydrolysis by cell-free preparations of various β-lactamases (Table 6). BL-S786 was slightly to markedly less susceptible than the other cephalosporins to hydrolysis by β-lactamases of Type Ia, Ib, IIIa and IVa. All cephalosporins were poor substrates for Type IIa and staphylococcal β-lactamases. The four cephalosporins were hydrolyzed at similar rates by the Type IVb enzyme.

Enterobacter cloacae = assay: Effect of inoculum size on susceptibility of Enterobacteriaceae
Proteus mirabilis [5] = assay: as above

Sequence of staphylococcal β-lactamase, Staphylococcus aureus A9606 (P00807 25-281): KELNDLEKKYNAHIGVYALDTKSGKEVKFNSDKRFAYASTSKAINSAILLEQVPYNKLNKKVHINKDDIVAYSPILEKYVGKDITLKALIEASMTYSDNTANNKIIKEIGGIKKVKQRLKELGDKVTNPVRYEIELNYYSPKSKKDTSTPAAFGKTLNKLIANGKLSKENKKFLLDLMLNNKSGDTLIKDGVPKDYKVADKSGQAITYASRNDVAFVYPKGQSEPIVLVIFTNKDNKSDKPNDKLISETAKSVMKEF

O=C(Cc1cccs1)N[C@@H]1C(=O)N2C(C(=O)[O-])=C(C[n+]3ccccc3)CS[C@H]12 [Cephaloridine]
percent of strains inhibited (Providencia stuartii [1]): negligible
relative activity against Haemophilus influenzae (Haemophilus influenzae): about equally active
MIC (Pseudomonas aeruginosa): > 125 mg/L
fraction unbound (in vitro): 0.7
ED50 (Streptococcus pneumoniae; Streptococcus pneumoniae strain 1, challenge 2 × 10^3 - 9 × 10^3, treated 1 and 3.5 hours after infection): 0.1 mg/kg
ED50 (Streptococcus pneumoniae; Streptococcus pneumoniae strain 2, challenge 1 × 10^4 - 3 × 10^4, treated 1 and 3.5 hours after infection): 0.26 mg/kg
ED50 (Staphylococcus aureus; 3.5 h, Staphylococcus aureus strain 1, challenge 2 × 10^5 - 3 × 10^5, treated 1 and 3.5 hours after infection): 0.01 mg/kg
ED50 (Staphylococcus aureus; Staphylococcus aureus strain 2 (penicillinase-producing), challenge 1 × 10^9, treated 0 and 2 hours after infection): 3.2 mg/kg
ED50 (Staphylococcus aureus; Staphylococcus aureus strain 3 (penicillinase-producing), challenge 5 × 10^8 - 7 × 10^9, treated 0 and 2 hours after infection): 3.3 mg/kg
ED50 (Streptococcus pyogenes; Streptococcus pyogenes strain 1, challenge 2 × 10^3 -6 × 10^3, treated 1 and 3.5 hours after infection): 0.06 mg/kg
ED50 (Streptococcus pyogenes; Streptococcus pyogenes strain 2, challenge 1 × 10^4 - 5 × 10^4, treated 1 and 3.5 hours after infection): 0.02 mg/kg
MIC (Edwardsiella tarda): 1 mg/L (≈ 2.41 µM)
ED50 (Citrobacter sp.): 36 mg/kg
ED50 (Proteus vulgaris; Proteus vulgaris strain 1, challenge 1×10^6 -2×10^6, treated 1 and 3.5 hours after infection): 6.4 mg/kg
ED50 (Proteus vulgaris; Proteus vulgaris strain 3, challenge 4×10^5, treated 1 and 3.5 hours after infection): 10 mg/kg
ED50 (Proteus morganii; Proteus morganii strain 1, challenge 1×10^5 -4×10^5, treated 1 and 3.5 hours after infection): 180 mg/kg
ED50 (Proteus morganii; Proteus morganii strain 2, challenge 2×10^6 -3×10^6, treated 1 and 3.5 hours after infection): 230 mg/kg
ED50 (Providencia stuartii [2]; Providencia stuartii strain 2, challenge 1×10^6 ×5×10^6, treated 1 and 3.5 hours after infection): 180 mg/kg
ED50 (Providencia stuartii [2]; Providencia stuartii strain 3, challenge 2×10^7, treated 1 and 3.5 hours after infection): 150 mg/kg
ED50 (Proteus rettgeri): 66 mg/kg
ED50 (Proteus mirabilis [3]; Proteus mirabilis strain 1, challenge 7×10^6 -9×10^6, treated 1 and 3.5 hours after infection): 19 mg/kg
ED50 (Proteus mirabilis [3]; Proteus mirabilis strain 5, challenge 9×10^5 -3×10^6, treated 1 and 3.5 hours after infection): 4 mg/kg
ED50 (Proteus mirabilis [3]; Proteus mirabilis strain 8, challenge 6×10^5 -4×10^6, treated 1 and 3.5 hours after infection): 5.5 mg/kg
ED50 (Klebsiella pneumoniae; Klebsiella pneumoniae strain 1, challenge 4×10^4 -5×10^4, treated 1 and 3.5 hours after infection): 8 mg/kg
ED50 (Klebsiella pneumoniae; Klebsiella pneumoniae strain 7, challenge 9×10^2 -1×10^3, treated 1 and 3.5 hours after infection): 41 mg/kg
ED50 (Escherichia coli; Escherichia coli strain 1, challenge 2×10^5 organisms, treated 1 and 3.5 hours after infection): 2.6 mg/kg
ED50 (Escherichia coli; Escherichia coli strain 8, challenge 6×10^5 -4×10^6, treated 1 and 3.5 hours after infection): 2.2 mg/kg
ED50 (Escherichia coli; Escherichia coli strain 9, challenge 7×10^3 -2×10^4, treated 1 and 3.5 hours after infection): 13 mg/kg
Relative Rate of Hydrolysis (benzylpenicillin = 100) [4]: < 0.5
MIC (Enterobacter cloacae; read-out: Minimum Inhibitory Concentration, Enterobacter cloacae strain 1, A, Inoculum of 10^2 organisms): 4 mg/L (≈ 9.63 µM)
MIC (Enterobacter cloacae; read-out: Minimum Inhibitory Concentration, Enterobacter cloacae strain 1, B, Inoculum of 10^6 organisms): > 250 mg/L
MIC (Enterobacter cloacae; read-out: Minimum Inhibitory Concentration, Enterobacter cloacae strain 2, A, Inoculum of 10^2 organisms): 125 mg/L (≈ 301 µM)
MIC (Enterobacter cloacae; read-out: Minimum Inhibitory Concentration, Enterobacter cloacae strain 2, B, Inoculum of 10^6 organisms): > 250 mg/L
MIC (Enterobacter cloacae; read-out: Minimum Inhibitory Concentration, Enterobacter cloacae strain 3, A, Inoculum of 10^2 organisms): 16 mg/L (≈ 38.5 µM)
MIC (Enterobacter cloacae; read-out: Minimum Inhibitory Concentration, Enterobacter cloacae strain 3, B, Inoculum of 10^6 organisms): 250 mg/L (≈ 602 µM)
MIC (Enterobacter cloacae; read-out: Minimum Inhibitory Concentration, Enterobacter cloacae strain 4, A, Inoculum of 10^2 organisms): > 250 mg/L
MIC (Enterobacter cloacae; read-out: Minimum Inhibitory Concentration, Enterobacter cloacae strain 4, B, Inoculum of 10^6 organisms): > 250 mg/L
MIC (Enterobacter cloacae; read-out: Minimum Inhibitory Concentration, Enterobacter cloacae strain 5, A, Inoculum of 10^2 organisms): 63 mg/L (≈ 152 µM)
MIC (Enterobacter cloacae; read-out: Minimum Inhibitory Concentration, Enterobacter cloacae strain 5, B, Inoculum of 10^6 organisms): > 250 mg/L
MIC (Proteus mirabilis [5]; read-out: Minimum Inhibitory Concentration, Proteus mirabilis strain 1, A, Inoculum of 10^2 organisms): 4 mg/L (≈ 9.63 µM)
MIC (Proteus mirabilis [5]; read-out: Minimum Inhibitory Concentration, Proteus mirabilis strain 1, B, Inoculum of 10^6 organisms): 16 mg/L (≈ 38.5 µM)
MIC (Proteus mirabilis [5]; read-out: Minimum Inhibitory Concentration, Proteus mirabilis strain 2, A, Inoculum of 10^2 organisms): 8 mg/L (≈ 19.3 µM)
MIC (Proteus mirabilis [5]; read-out: Minimum Inhibitory Concentration, Proteus mirabilis strain 2, B, Inoculum of 10^6 organisms): 16 mg/L (≈ 38.5 µM)
MIC (Proteus mirabilis [5]; read-out: Minimum Inhibitory Concentration, Proteus mirabilis strain 3, A, Inoculum of 10^2 organisms): 8 mg/L (≈ 19.3 µM)
MIC (Proteus mirabilis [5]; read-out: Minimum Inhibitory Concentration, Proteus mirabilis strain 3, B, Inoculum of 10^6 organisms): 32 mg/L (≈ 77 µM)
MIC (Proteus mirabilis [5]; read-out: Minimum Inhibitory Concentration, Proteus mirabilis strain 4, A, Inoculum of 10^2 organisms): 4 mg/L (≈ 9.63 µM)
MIC (Proteus mirabilis [5]; read-out: Minimum Inhibitory Concentration, Proteus mirabilis strain 4, B, Inoculum of 10^6 organisms): 32 mg/L (≈ 77 µM)
MIC (Proteus mirabilis [5]; read-out: Minimum Inhibitory Concentration, Proteus mirabilis strain 5, A, Inoculum of 10^2 organisms): 4 mg/L (≈ 9.63 µM)
MIC (Proteus mirabilis [5]; read-out: Minimum Inhibitory Concentration, Proteus mirabilis strain 5, B, Inoculum of 10^6 organisms): 16 mg/L (≈ 38.5 µM)
